ChEMBL document CHEMBL1138510, “Antimalarial peroxide dyads from natural artemisinin and hydroxyalkylated 1,2,4-trioxanes” (2009)

System: Plasmodium falciparum
Test: Antiplasmodial activity against Plasmodium falciparum NF54 infected human A+ erythrocytes after 72 hrs as IC ratio relative to dihydroartemisinin
Format: functional

Compound | Ratio IC50
C=C(C)[C@@H]1OOC2(CCCCC2)O[C@@H]1CCOC1C[C@@H]2O[C@]3(C)CC[C@H]4[C@H](C)CC[C@@H]([C@H]1C)[C@@]24OO3 (mixture of isomers) | 0.49
C=C(C)[C@@H]1OOC(C)(C)O[C@@H]1CCO[C@H]1C[C@@H]2O[C@]3(C)CC[C@H]4[C@H](C)CC[C@@H]([C@H]1C)[C@@]24OO3 | 0.54
